Experiment: Intraocular pharmacokinetics of dexamethasone palmitate and dexamethasone following intravitreal administration
Conditions: following IVT injection of 800 ug of prodrug
From the text: Analytes and internal standard (roxithromycine) were extracted from the tissues using acetonitrile and separated by reverse phase liquid chromatography with a C8 column and a gradient mobile phase. […] The unweighed linear model was applied.
All concentrations are expressed in ng/g.

C[C@@H]1C[C@H]2[C@@H]3CCC4=CC(=O)C=C[C@]4(C)[C@@]3(F)[C@@H](O)C[C@]2(C)[C@@]1(O)C(=O)CO [D, dexamethasone]
time for which therapeutic levels were maintained in the target tissues: at least 2 months

Source: patent US9192567B2, “Method for treating eye disease or conditions affecting the posterior segment of the eye” (SANTEN SAS, priority 2006, dated 2015)
